Entries after “also recorded” stand apart in the source; their conditions may differ.
Experiments:
murine P388 leukemia = assay: In vivo antitumor activity vs. murine P388 (P388/S) leukemia; design: species or system murine (B6D2F1 males); conditions: for Long-term survivors / Median increase in lifespan / Median survival / Net mean percent weight change, day 7 / Range of deaths (dying animals) / Range of death (dying animals): ip
Source text: Initial studies utilized a multiple dose schedule, with drug administered once daily on days 1, 2, 3 and 4. […] The marked activity of AD 312 in this system has been confirmed in multiple separate experiments.
Additional studies were done with AD 312 vs. murine P388/S under more demanding conditions of assay.
^a Summary results of 4 separate experiments. B6D2F1 males; 1 ×

red blood cells = assay: Hematotoxicity study in non-tumor-bearing animals, red blood cell count; type: in vivo, mice; conditions: 3 dose levels
Source text: Clinically and in laboratory animals, anthracycline antibiotics and chloroethylnitrosourea alkylating agents currently used in medical oncology are known to be strongly myelosuppressive, with the effects of the alkylating agents on suppression of bone marrow activity being particularly profound and long-lasting.

[1] = P388/S, 17.5 mg/kg/day, days 1-4
[2] = P388/S, single dose 40.5 mg/kg day 1
[3] = P388/S, single dose 40.5 mg/kg day 3

## COc1cccc2c1C(=O)c1c(O)c3c(c(O)c1C2=O)C[C@@](O)(C(C)=O)C[C@@H]3O[C@H]1C[C@H](NC(=O)N(CCCl)N=O)[C@H](O)[C@H](C)O1 [AD 312, 2-chloroethylnitrosoureidodaunorubicin]
Murine P388 leukemia; [1]
  60-day survival: 100%
  drug toxicity: without evidence of drug toxicity
Murine P388 leukemia; P388/S, gross examination at termination
  autopsy of surviving animals: no evidence of tumor or other abnormalities was observed on gross examination
Murine P388 leukemia; [2]
  60-day survival: 100%
  antitumor effect: significant antitumor effect
  dose toxicity: nontoxic
Murine P388 leukemia; [3]
  animals cured: 6 of 7
  day of the lone death: 45 days
Murine P388 leukemia; 0.5 mg/kg qd 1-4
  Long-term survivors: 0/7
  Median increase in lifespan: +10%
  Median survival: 11 days
  Net mean percent weight change, day 7: +13%
  Range of deaths (dying animals): 10 to 11 days
Murine P388 leukemia; 1.0 mg/kg qd 1-4
  Long-term survivors: 0/7
  Median increase in lifespan: +20%
  Median survival: 12 days
  Net mean percent weight change, day 7: +6%
  Range of deaths (dying animals): 11 to 18 days
Murine P388 leukemia; 2.0 mg/kg qd 1-4 (Table 4)
  Long-term survivors: 0/7
  Median increase in lifespan: +30%
  Median survival: 13 days
  Net mean percent weight change, day 7: +7%
  Range of deaths (dying animals): 12 to 14 days
Murine P388 leukemia; 2.7 mg/kg qd 1-4
  Long-term survivors: 0/7
  Median increase in lifespan: +60%
  Median survival: 16 days
  Net mean percent weight change, day 7: +4%
  Range of deaths (dying animals): 16 to 17 days
Murine P388 leukemia; 4.0 mg/kg qd 1-4 (Table 4)
  Long-term survivors: 0/7
  Median increase in lifespan: +75%
  Median survival: 17.5 days
  Net mean percent weight change, day 7: +2%
  Range of deaths (dying animals): 15 to 20 days
Murine P388 leukemia; 6.0 mg/kg qd 1-4
  Long-term survivors: 0/7
  Median increase in lifespan: +110%
  Median survival: 21 days
  Net mean percent weight change, day 7: +4%
  Range of deaths (dying animals): 19 to 24 days
Murine P388 leukemia; 9.0 mg/kg qd 1-4
  Median increase in lifespan: +250%
  Median survival: 35 days
  Net mean percent weight change, day 7: -2%
  Range of deaths (dying animals): 24 to 35 days
Murine P388 leukemia; 9.0 mg/kg qd 1-4, sacrifice day 43
  Long-term survivors: 3/7
Murine P388 leukemia; 10.0 mg/kg qd 1-4
  Median increase in lifespan: > +500%
  Net mean percent weight change, day 7: -1%
  Range of deaths (dying animals): 38 days
Murine P388 leukemia; 10.0 mg/kg qd 1-4, sacrifice day 60
  Long-term survivors: 5/7
Murine P388 leukemia; 11.0 mg/kg qd 1-4
  Median increase in lifespan: > +500%
  Net mean percent weight change, day 7: +1%
  Range of deaths (dying animals): 28 days
Murine P388 leukemia; 11.0 mg/kg qd 1-4, sacrifice day 60
  Long-term survivors: 5/6
Murine P388 leukemia; 12.0 mg/kg day 1 only
  Long-term survivors: 0/7
  Median increase in lifespan: +100%
  Median survival: 20 days
  Net mean percent weight change, day 7: +6%
  Range of death (dying animals): 16 to 22 days
Murine P388 leukemia; 12.5 mg/kg qd 1-4
  Median increase in lifespan: > +540%
  Range of deaths (dying animals): 35 to 40 days
Murine P388 leukemia; 12.5 mg/kg qd 1-4, sacrifice day 64
  Long-term survivors: 4/7
Murine P388 leukemia; 15.0 mg/kg qd 1-4
  Median increase in lifespan: > +540%
  Net mean percent weight change, day 7: -1%
  Range of deaths (dying animals): 32 to 39 days
Murine P388 leukemia; 15.0 mg/kg qd 1-4, sacrifice day 64
  Long-term survivors: 4/7
Murine P388 leukemia; 17.5 mg/kg qd 1-4
  Median increase in lifespan: > +540%
  Net mean percent weight change, day 7: -1%
Murine P388 leukemia; 17.5 mg/kg qd 1-4, sacrifice day 64
  Long-term survivors: 6/6
Murine P388 leukemia; 18.0 mg/kg day 1 only
  Median increase in lifespan: +210%
  Median survival: 31 days
  Net mean percent weight change, day 7: +7%
  Range of death (dying animals): 18 to 35 days
Murine P388 leukemia; 18.0 mg/kg day 1 only, sacrifice day 60
  Long-term survivors: 1/7
Murine P388 leukemia; 27.0 mg/kg day 1 only
  Median increase in lifespan: +230%
  Median survival: 33 days
  Net mean percent weight change, day 7: +9%
  Range of death (dying animals): 23 to 33 days
Murine P388 leukemia; 27.0 mg/kg day 1 only, sacrifice day 60
  Long-term survivors: 3/7
Murine P388 leukemia; 27.0 mg/kg day 3 only
  Long-term survivors: 0/7
  Median increase in lifespan: +210%
  Median survival: 31 days
  Net mean percent weight change, day 7: +17%
  Range of death (dying animals): 12 to 49 days
Murine P388 leukemia; 40.5 mg/kg day 1 only
  Median increase in lifespan: > +500%
  Net mean percent weight change, day 7: -3%
Murine P388 leukemia; 40.5 mg/kg day 1 only, sacrifice day 60
  Long-term survivors: 7/7
Murine P388 leukemia; 40.5 mg/kg day 3 only
  Median increase in lifespan: > +500%
  Net mean percent weight change, day 7: -4%
  Range of death (dying animals): 45 days
Murine P388 leukemia; 40.5 mg/kg day 3 only, sacrifice day 60
  Long-term survivors: 6/7
Murine P388 leukemia; tumor-bearing animals
  toxicity / myelosuppression at curative doses: No such effect appears to be present in tumor-bearing animals; also recorded: lack of toxicity at the curative dose levels
Red blood cells
  change in red blood cell counts: No significant change in red blood cells counts

Source: US4973675A, “Hybrid nitrosoureidoanthracyclines having antitumor activity” (University of Tennessee Research Center, priority 1989, dated 1990)
